These results are taken from patent US7803930B2, “Antisense modulation of apolipoprotein B-expression” (Isis Pharmaceuticals, Inc., priority 2002, dated 2010).

In the data set the test system is human apolipoprotein B mRNA. The data set can be described thus: Inhibition of human apolipoprotein B mRNA levels in HepG2 cells, quantitative real-time PCR. Type of data set: cell-based. The settings on record: HepG2 cells, averages from two experiments. Put shortly:
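HepG2 cells at 80% confluency were transfected with antisense oligonucleotide using 3.75 μg/mL Lipofectin in Opti-MEM for 4-7 h and harvested 16-24 h after treatment. Apolipoprotein B mRNA was measured by real-time RT-PCR and normalized to GAPDH or RiboGreen total RNA. Percent inhibition came from untreated-control standard curves.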
In general terms: Real-time PCR tracks product formation cycle by cycle.

In the oligonucleotide strings, read from the 5' end, every base follows the letter of its sugar. An asterisk marks phosphorothioate; unmarked linkages are phosphodiester. Other units and linkages are bracketed, terminal groups are in braces. A string of capitals states the bases alone. e = 2'-O-(2-methoxyethyl) (MOE); [5mC] = 5-methylcytosine; d = 2'-deoxy (DNA)

For “308602 (antisense e[5mC]*eA*eT*eG*eG*dT*dA*dG*d[5mC]*d[5mC]*dT*d[5mC]*dA*dG*dT*e[5mC]*eT*eG*e[5mC]*eT) [compound 308602]”, under “Table 11 gene walk”, the “% INHIB 50 nm” value turned out to be 83% and the “% INHIB 150 nm” value was found to be 92%.

Regarding “308603 (eG*eT*e[5mC]*eA*eT*dG*dG*dT*dA*dG*d[5mC]*d[5mC]*dT*d[5mC]*dA*eG*eT*e[5mC]*eT*eG; antisense) [compound 308603]”, for the setting “Table 11 gene walk”, the “% INHIB 50 nm” value turned out to be 56% and the “% INHIB 150 nm” value was 97%.

In the case of “308604 (eA*eT*eG*eT*e[5mC]*dA*dT*dG*dG*dT*dA*dG*d[5mC]*d[5mC]*dT*e[5mC]*eA*eG*eT*e[5mC]; antisense) [compound 308604]”, under “Table 11 gene walk”, the “% INHIB 50 nm” value came out at 73% and the “% INHIB 150 nm” value is reported as 90%.

Take “308605 (eG*eA*eA*eT*eG*dT*d[5mC]*dA*dT*dG*dG*dT*dA*dG*d[5mC]*e[5mC]*eT*e[5mC]*eA*eG; antisense) [compound 308605]”: under “Table 11 gene walk”, the “% INHIB 50 nm” value is 50% and the “% INHIB 150 nm” value is listed as 81%.

As to “308606 (eT*eT*eG*eA*eA*dT*dG*dT*d[5mC]*dA*dT*dG*dG*dT*dA*eG*e[5mC]*e[5mC]*eT*e[5mC]; antisense) [compound 308606]”, for the setting “Table 11 gene walk”, the “% INHIB 50 nm” value was determined as 54% and the “% INHIB 150 nm” value is given as 97%.

Turning to “308607 (eA*eT*eT*eT*eG*dA*dA*dT*dG*dT*d[5mC]*dA*dT*dG*dG*eT*eA*eG*e[5mC]*e[5mC]; antisense) [compound 308607]”, for the setting “Table 11 gene walk”, the “% INHIB 50 nm” value is on record as 9% and the “% INHIB 150 nm” value is 77%.

For the substance “308608 (eA*eT*eA*eT*eT*dT*dG*dA*dA*dT*dG*dT*d[5mC]*dA*dT*eG*eG*eT*eA*eG; antisense) [compound 308608]”, under “Table 11 gene walk”, the “% INHIB 50 nm” value was 70% and the “% INHIB 150 nm” value is given as 85%.

For “308609 (e[5mC]*eA*eG*e[5mC]*e[5mC]*dA*d[5mC]*dA*dT*dG*d[5mC]*dA*dG*d[5mC]*dT*eT*e[5mC]*eA*eG*eG; antisense) [compound 308609]”, for the setting “Table 11 gene walk”, the “% INHIB 50 nm” value is 78% and the “% INHIB 150 nm” value is recorded as 96%.

“308610 (eA*e[5mC]*e[5mC]*eA*eG*d[5mC]*d[5mC]*dA*d[5mC]*dA*dT*dG*d[5mC]*dA*dG*e[5mC]*eT*eT*e[5mC]*eA; antisense) [compound 308610]”: under “Table 11 gene walk”, the “% INHIB 50 nm” value is 40% and the “% INHIB 150 nm” value is listed as 90%.

Regarding “308611 (eT*eT*eA*e[5mC]*e[5mC]*dA*dG*d[5mC]*d[5mC]*dA*d[5mC]*dA*dT*dG*d[5mC]*eA*eG*e[5mC]*eT*eT; antisense) [compound 308611]”, for the setting “Table 11 gene walk”, the “% INHIB 50 nm” value stood at 59% and the “% INHIB 150 nm” value came to 95%.

Turning to “308612 (eG*eG*eT*eT*eA*d[5mC]*d[5mC]*dA*dG*d[5mC]*d[5mC]*dA*d[5mC]*dA*dT*eG*e[5mC]*eA*eG*e[5mC]; antisense) [compound 308612]”, under “Table 11 gene walk”, the “% INHIB 50 nm” value came to 75% and the “% INHIB 150 nm” value is reported as 90%.

Regarding “308613 (eT*eA*eG*eG*eT*dT*dA*d[5mC]*d[5mC]*dA*dG*d[5mC]*d[5mC]*dA*d[5mC]*eA*eT*eG*e[5mC]*eA; antisense) [compound 308613]”, for the setting “Table 11 gene walk”, the “% INHIB 50 nm” value stood at 43% and the “% INHIB 150 nm” value was 87%.

As for “308614 (eT*eT*eT*eA*eG*dG*dT*dT*dA*d[5mC]*d[5mC]*dA*dG*d[5mC]*d[5mC]*eA*e[5mC]*eA*eT*eG; antisense) [compound 308614]”, under “Table 11 gene walk”, the “% INHIB 50 nm” value came out at 74% and the “% INHIB 150 nm” value turned out to be 92%.

“308615 (e[5mC]*eT*eT*eT*eT*dA*dG*dG*dT*dT*dA*d[5mC]*d[5mC]*dA*dG*e[5mC]*e[5mC]*eA*e[5mC]*eA; antisense) [compound 308615]”: where the note is “Table 11 gene walk”, the “% INHIB 50 nm” value amounted to 45% and the “% INHIB 150 nm” value is 85%.

“308616 (eT*e[5mC]*e[5mC]*eT*eT*dT*dT*dA*dG*dG*dT*dT*dA*d[5mC]*d[5mC]*eA*eG*e[5mC]*e[5mC]*eA; antisense) [compound 308616]”: under “Table 11 gene walk”, the “% INHIB 50 nm” value came out at 39% and the “% INHIB 150 nm” value is listed as 81%.

“308617 (eG*e[5mC]*eT*e[5mC]*e[5mC]*dT*dT*dT*dT*dA*dG*dG*dT*dT*dA*e[5mC]*e[5mC]*eA*eG*e[5mC]; antisense) [compound 308617]”: under “Table 11 gene walk”, the “% INHIB 50 nm” value was 77% and the “% INHIB 150 nm” value is listed as 87%.

As for “308618 (eA*eG*eG*e[5mC]*eT*d[5mC]*d[5mC]*dT*dT*dT*dT*dA*dG*dG*dT*eT*eA*e[5mC]*e[5mC]*eA; antisense) [compound 308618]”, where the note is “Table 11 gene walk”, the “% INHIB 50 nm” value is 61% and the “% INHIB 150 nm” value amounted to 77%.

Take “308619 (eG*eT*eA*eG*eG*d[5mC]*dT*d[5mC]*d[5mC]*dT*dT*dT*dT*dA*dG*eG*eT*eT*eA*e[5mC]; antisense) [compound 308619]”: under “Table 11 gene walk”, the “% INHIB 50 nm” value is reported as 69% and the “% INHIB 150 nm” value amounted to 74%.

“308620 (eT*eG*eG*eT*eA*dG*dG*d[5mC]*dT*d[5mC]*d[5mC]*dT*dT*dT*dT*eA*eG*eG*eT*eT; antisense) [compound 308620]”: for the setting “Table 11 gene walk”, the “% INHIB 50 nm” value amounted to 69% and the “% INHIB 150 nm” value is recorded as 88%.

For “308621 (eT*eT*eT*eG*eG*dT*dA*dG*dG*d[5mC]*dT*d[5mC]*d[5mC]*dT*dT*eT*eT*eA*eG*eG; antisense) [compound 308621]”, under “Table 11 gene walk”, the “% INHIB 50 nm” value is 56% and the “% INHIB 150 nm” value came out at 91%.

“308622 (eG*e[5mC]*e[5mC]*eT*eT*d[5mC]*dT*dG*d[5mC]*dT*dT*dG*dA*dG*dT*eT*eA*e[5mC]*eA*eA; antisense) [compound 308622]”: where the note is “Table 13 gene walk”, the “% INHIB 50 nm” value is given as 25% and the “% INHIB 150 nm” value was 87%.

“308623 (eG*e[5mC]*eG*e[5mC]*e[5mC]*dT*dT*d[5mC]*dT*dG*d[5mC]*dT*dT*dG*dA*eG*eT*eT*eA*e[5mC]; antisense) [compound 308623]”: where the note is “Table 13 gene walk”, the “% INHIB 50 nm” value stood at 62% and the “% INHIB 150 nm” value is on record as 71%.

Consider “308624 (eT*e[5mC]*eG*e[5mC]*eG*d[5mC]*d[5mC]*dT*dT*d[5mC]*dT*dG*d[5mC]*dT*dT*eG*eA*eG*eT*eT; antisense) [compound 308624]”, for which, under “Table 13 gene walk”, the “% INHIB 50 nm” value was 69% and the “% INHIB 150 nm” value came to 89%.

As to “308625 (e[5mC]*eT*eT*e[5mC]*eG*d[5mC]*dG*d[5mC]*d[5mC]*dT*dT*d[5mC]*dT*dG*d[5mC]*eT*eT*eG*eA*eG; antisense) [compound 308625]”, where the note is “Table 13 gene walk”, the “% INHIB 50 nm” value was 64% and the “% INHIB 150 nm” value is reported as 83%.

“308626 (eA*eG*eT*e[5mC]*eT*dG*d[5mC]*dT*dT*d[5mC]*dG*d[5mC]*dG*d[5mC]*d[5mC]*eT*eT*e[5mC]*eT*eG; antisense) [compound 308626]”: where the note is “Table 13 gene walk”, the “% INHIB 50 nm” value is given as 38% and the “% INHIB 150 nm” value came out at 94%.

For “308627 (eT*e[5mC]*eA*eG*eT*d[5mC]*dT*dG*d[5mC]*dT*dT*d[5mC]*dG*d[5mC]*dG*e[5mC]*e[5mC]*eT*eT*e[5mC]; antisense) [compound 308627]”, for the setting “Table 13 gene walk”, the “% INHIB 50 nm” value was found to be 67% and the “% INHIB 150 nm” value is 89%.

“308628 (e[5mC]*e[5mC]*eT*e[5mC]*eA*dG*dT*d[5mC]*dT*dG*d[5mC]*dT*dT*d[5mC]*dG*e[5mC]*eG*e[5mC]*e[5mC]*eT; antisense) [compound 308628]”: where the note is “Table 13 gene walk”, the “% INHIB 50 nm” value is recorded as 61% and the “% INHIB 150 nm” value was 92%.
